Measured values taken from patent US20220273739A1, “COMBINATION DRUG FOR TREATING MALIGNANT TUMOR, PHARMACEUTICAL COMPOSITION FOR TREATING MALIGNANT TUMOR, AND PHARMACEUTICAL COMPOSITION FOR MALIGNANT TUMOR TREATMENT” (priority 2019, published 2022).

Tested on: murine squamous cell carcinoma (SCC VII)
Experiment: Antitumor effect (tumor size) in both-side side-abdomen implanted SCC VII tumor-bearing mice
Format: in vivo, C3H/He Slc mice
Conditions: for antitumor effect (tumor size), tumor with administration of the drug (treated group): FIG. 1A, intratumoral administration on Day 0, 3, 6, compared to MOCK (saline solution), C-REV 1×10^6 pfu/100 μl, cGAMP 20 μg/100 μl; for antitumor effect (tumor size), tumor spaced apart from the tumor with administration of the drug (non-treated group): FIG. 1B / FIG. 2, tumor on opposite side of the abdomen received saline solution only, drug given to the other tumor on Day 0, 3, 6
Text: Six-week-old female C3H/He Slc mice (purchased from Chubu Kagaku Shizai Co., Ltd.) were used as mice. A tumor of murine squamous cell carcinoma (SCC VII; given by professor Shin-ichiro Masunaga, Kyoto University Institute for Integrated Radiation and Nuclear Science) was cut into 2 mmcubes, and two of the cubes were implanted under the skin on both sides of the abdomen of the mice by a tumor implantation needle (both-side side-abdomen implanted model). When the size of the tumor reached the size of 100 mm^3, grouping was performed. Although differing among the mice, one tumor end and the other tumor end were spaced apart from each other by about 10 mm.
First medicine: C-REV was suspended in a saline solution to obtain a concentration of 1×10^6 pfu/100 μl.
Second medicine: 2′3′-cGAMP (No. tlrl-nacga23 by Invivogen) was dissolved and suspended in a saline solution to obtain a concentration of 20 μg/100 μl.
Day 0: The first medicine of 100 μl was administered to a tumor (treated group) on one side of the abdomen. Further, a saline solution of 100 μl was administered to a tumor (non-treated group) on the other side of the abdomen. Day 3: The second medicine of 100 μl was administered to a tumor (treated group) on one side of the abdomen. Further, a saline solution of 100 μl was administered to a tumor (non-treated group) on the other side of the abdomen. Day 6: The second medicine of 100 μl was administered to a tumor (treated group) on one side of the abdomen. Further, a saline solution of 100 μl was administered to a tumor (non-treated group) on the other side of the abdomen.
The tumor size was calculated from multiplication of the longer diameter by the shorter diameter by the shorter diameter by 1/2 of a tumor.
(§1) The experiment was performed in the same procedure as for Example 1 except for administration of a saline solution of 100 μl on Day 3 and Day 6 instead of the administration of the second medicine to the treated group.
as §1, with “Example 1 except for administration of the second medicine on Day 0 instead of the administration of the first medicine to the treated group and except for” for “Example 1 except for”
as §1, with “Example 1 except for administration of a saline solution of 100 μl on Day 0 instead of the administration of the first medicine to the treated group and except for” for “Example 1 except for”
The experiment was performed in the same procedure as for Example 1 except for use of the hrR3 instead of the C-REV as the first medicine. […]

Molecule	antitumor effect (tumor size), tumor with administration of the drug (treated group)	antitumor effect (tumor size), tumor spaced apart from the tumor with administration of the drug (non-treated group)
Canerpaturev [C-REV]	an antitumor effect was developed	almost no antitumor effect
Nc1nc2c(ncn2[C@@H]2O[C@@H]3COP(=O)(O)O[C@H]4[C@@H](O)[C@H](n5cnc6c(N)ncnc65)O[C@@H]4COP(=O)(O)O[C@@H]2[C@@H]3O)c(=O)[nH]1 [cGAMP, 2′3′-cyclic GMP-AMP]	an antitumor effect was developed	almost no antitumor effect
